Columns and labels:
[1] = Lipophilicity at physiological pH; type: physicochemical
[2] = Aqueous solubility and BCS classification; type: physicochemical
[3] = Accelerated stress test, stability at 70°C and 105°C (XRPD and HPLC); type: physicochemical; details: for Impurity 1 / Impurity 2 / Impurity 3 / Impurity 4 / Impurity 5 / Total Imp.: closed glass container
Protocol: (§1) Crystalline materials of Compound A of the present invention were exposed to various temperature and humidity stress conditions and investigated by XRPD and HPLC in order to investigate their physical and chemical stability.
The crystalline form of Compound A of the present invention (prepared according to the procedure described in Example 1) was stored in closed glass containers at heat stress condition of 70° C. for 3 weeks. In addition, the crystalline form of Compound A of the present invention (prepared according to the procedures described in Example 1 and 3, respectively) was stored in closed glass containers at heat stress condition of 105° C. for 24 hours.
For example, the increase in total impurities of crystalline compound A obtained according to the procedure of Example 3 was below 0.5%. Table 10, provides the chemical stability data of the crystalline compound A obtained according to the procedure of Example 1.

[4] = Accelerated stress test, stability at 40°C/75% RH (XRPD and HPLC); type: physicochemical; details: Example 1 material
Protocol: as §1
The crystalline form of Compound A of the present invention (prepared according to the procedure described in Example 1) was open stored under heat and humidity stress conditions of 40° C. and 75% RH for 6 months.

[5] = Accelerated stress test, stability at 60°C/80% RH (XRPD and HPLC); type: physicochemical; details: for Impurity 1 / Impurity 2 / Impurity 3 / Impurity 4 / Impurity 5 / Total impurities: 60°C/80% RH open storage
Protocol: as §1
The crystalline form of Compound A of the present invention (prepared according to the procedure described in Example 1 and 3, respectively) was open stored under heat and humidity stress conditions of 60° C. and 80% RH for 3 days.
For example, the increase in total impurities of crystalline compound A obtained according to the procedure of Example 3 was below 0.5%. Table 9, provides the chemical stability data of the crystalline compound A obtained according to the procedure of Example 1.

[6] = Gravimetric moisture sorption; type: physicochemical; details: 0 to 90% relative humidity, 25.0°C
Protocol: The crystalline form of Compound A of the present invention was subjected to a gravimetric moisture sorption experiment using a DVS intrinsic moisture sorption analyzer (Surface Measurement System). The measurement was conducted in relative humidity steps of 10%. The time per step was set to a minimum of 5 minutes and a maximum of 6 hours. If an equilibrium condition with a constant mass of ±0.02% within 10 min was reached before the maximum time, the subsequent step was applied before the maximum time of 6 hours. If no equilibrium was achieved the consecutive humidity step was applied after the maximum time of 6 hours. The temperature was (25.0±0.1° C.)

[7] = Accelerated stress test, stability at 25°C/60% RH (XRPD and HPLC); type: physicochemical; details: Example 1 material; for Impurity 1 / Impurity 2 / Impurity 3 / Impurity 4 / Impurity 5 / Total impurities: 25°C/60% RH open storage
Protocol: as §1
The crystalline form of Compound A of the present invention (prepared according to the procedure described in Example 1) was open stored under humidity stress conditions of 25° C. and 60% RH for 6 months.

[8] = tiny-TIM in vitro bioaccessibility under simulated fasted conditions; type: in vitro ADME
Protocol: A tiny-TIM system was used as a model for the simulation of the physiological processes occurring in human stomach and small intestine to study the in vitro bioaccessibility of the crystalline Compound A of the present invention (prepared according to the procedure described in Example 1) under simulated fasted conditions. Thereby, the impact of drug substance particle size distribution (PSD) and amorphous content on bioaccessibility was evaluated by using tablets manufactured from a range of drug substance batches with different amorphous contents and variations in PSD. The investigated drug products also cover extreme conditions such as low amorphous content and coarse PSD as well as high amorphous content and fine PSD.

[9] = Example 1 material, 70°C, 3 weeks
[10] = Example 1 material, 105°C, 24 hours
[11] = Example 1 material, 70°C, 1 week
[12] = Example 1 material, 70°C, 2 weeks
[13] = Example 1 material, closed glass containers, 70°C, 3 weeks
[14] = Example 1 material, closed glass containers, 105°C, 24 hours
[15] = Example 3 material, closed glass containers, 105°C, 24 hours
[16] = initial, before 40°C/75% RH storage
[17] = open storage 40°C/75% RH, 6 months
[18] = Example 1 material, open storage 60°C/80% RH, 3 days
[19] = Example 3 material, open storage 60°C/80% RH, 3 days
[20] = open storage 25°C/60% RH, 6 months

In the case of Cc1c(C(=O)O)ccc2c3n(nc12)[C@@H]1[C@H](C3)N(CC2CC2)[C@@]2(C(=O)Nc3cc(Cl)ccc32)[C@H]1c1cccc(Cl)c1F [Compound A, (2′S,3′S,3a′S,10a′S)-6-chloro-3′-(3-chloro-2-fluorophenyl)-1′-(cyclopropylmethyl)-6′-methyl-2-oxo-1,2,3′,3a′,10′,10a′-hexahydro-1′H-spiro[indole-3,2′-pyrrolo[2′,3′:4,5]pyrrolo[1,2-b]indazole]-7′-carboxylic acid], the lipophilicity [1] is reported as “lipophilic”, the aqueous solubility ([2]; across the physiological pH range) is reported as “low” and the “biopharmaceutical classification system class” value ([2]; class II = low solubility, high permeability) is reported as “class II”.
With Cc1c(C(=O)O)ccc2c3n(nc12)[C@@H]1[C@H](C3)N(CC2CC2)[C@@]2(C(=O)Nc3cc(Cl)ccc32)[C@H]1c1cccc(Cl)c1F [crystalline form of Compound A, (2′S,3′S,3a′S,10a′S)-6-chloro-3′-(3-chloro-2-fluorophenyl)-1′-(cyclopropylmethyl)-6′-methyl-2-oxo-1,2,3′,3a′,10′,10a′-hexahydro-1′H-spiro[indole-3,2′-pyrrolo[2′,3′:4,5]pyrrolo[1,2-b]indazole]-7′-carboxylic acid] the “physical and chemical stability under temperature stress (summary)” value [3, 9] was “physically and chemically stable”, the “physical and chemical stability under temperature stress (summary)” value [3, 10] was “physically and chemically stable” and the “Impurity 1” value [3, 11] was 0.07%. For the same compound, the “Impurity 2” value [3, 11] was ≤0.05%, the “Impurity 3” value [3, 11] was 0.07% and the “Impurity 4” value [3, 11] was 0.24%. For the same compound, the “Impurity 5” value [3, 11] was 0.26%, the “Total Imp.” value [3, 11] was 0.64% and the “Impurity 1” value [3, 12] was 0.07%. The “Impurity 2” value [3, 12] was ≤0.05%, the “Impurity 3” value [3, 12] was 0.06% and the “Impurity 4” value [3, 12] was 0.23%. The “Impurity 5” value [3, 12] was 0.25%, the “Total Imp.” value [3, 12] was 0.61% and the “Impurity 1” value [3, 9] was 0.07%. The “Impurity 2” value [3, 9] was ≤0.05%, the “Impurity 3” value [3, 9] was 0.07% and the “Impurity 4” value [3, 9] was 0.24%. For the same compound, the “Impurity 5” value [3, 9] was 0.31%, the “Total Imp.” value [3, 9] was 0.69% and the “Impurity 1” value [3, 10] was 0.07%. For the same compound, the “Impurity 2” value [3, 10] was ≤0.05%, the “Impurity 3” value [3, 10] was 0.06% and the “Impurity 4” value [3, 10] was 0.23%. For the same compound, the “Impurity 5” value [3, 10] was 0.25%, the “Total Imp.” value [3, 10] was 0.61% and the “Impurity 1” value ([3]; Example 1 material, Start) was 0.08%. For the same compound, the “Impurity 2” value ([3]; Example 1 material, Start) was 0.06%, the “Impurity 3” value ([3]; Example 1 material, Start) was ≤0.05% and the “Impurity 4” value ([3]; Example 1 material, Start) was 0.26%. The “Impurity 5” value ([3]; Example 1 material, Start) was 0.26%, the “Total Imp.” value ([3]; Example 1 material, Start) was 0.66% and the “chemical stability: impurity profiles of initial samples vs stressed samples” value [3, 13] was “remained chemically stable”. The “physical stability: XRPD of initial samples vs stressed samples” value (“physical stability … vs stressed samples” for short) [3, 13] was “No differences in reflection positions”, the “chemical stability: impurity profiles of initial samples vs stressed samples” value [3, 14] was “remained chemically stable” and the “physical stability … vs stressed samples” value [3, 14] was “No differences in reflection positions”. The “physical and chemical stability under temperature stress (summary)” value ([3]; Example 3 material, 105°C, 24 hours) was “physically and chemically stable”, the “increase in total impurities” value [3, 15] was “below 0.5%” and the “physical stability … vs stressed samples” value [3, 15] was “No differences in reflection positions”. The “stability under accelerated stress conditions (summary)” value ([4]; 40°C/75% relative humidity, 6 months) was “stable”, the “Impurity A, Initial Peak Area-%” value [4, 16] was 0.06% and the “Impurity B, Initial Peak Area-%” value [4, 16] was 0.06%. The “Impurity C, Initial Peak Area-%” value [4, 16] was 0.05%, the “Impurity D, Initial Peak Area-%” value [4, 16] was 0.23% and the “Impurity E, Initial Peak Area-%” value [4, 16] was 0.31%. The “Total impurities, Initial Peak Area-%” value [4, 16] was 0.71%, the “Impurity A, Peak Area-% at 6 months” value [4, 17] was “Not detected” and the “Impurity B, Peak Area-% at 6 months” value [4, 17] was 0.06%. The “Impurity C, Peak Area-% at 6 months” value [4, 17] was 0.06%, the “Impurity D, Peak Area-% at 6 months” value [4, 17] was 0.25% and the “Impurity E, Peak Area-% at 6 months” value [4, 17] was 0.33%. The “Total impurities, Peak Area-% at 6 months” value [4, 17] was 0.70%, the “chemical stability: impurity profile of initial sample vs stressed sample” value [4, 17] was “no significant increase of chemical impurities” and the “physical stability: XRPD of initial sample vs stressed sample” value [4, 17] was “No differences in reflection positions”. For the same compound, the “Impurity 1” value ([5]; Example 1 material, 3 days) was 0.07%, the “Impurity 2” value ([5]; Example 1 material, 3 days) was ≤0.05% and the “Impurity 3” value ([5]; Example 1 material, 3 days) was 0.07%. For the same compound, the “Impurity 4” value ([5]; Example 1 material, 3 days) was 0.24%, the “Impurity 5” value ([5]; Example 1 material, 3 days) was 0.31% and the Total impurities ([5]; Example 1 material, 3 days) was 0.69%. For the same compound, the “Impurity 1” value ([5]; Example 1 material, Start) was 0.08%, the “Impurity 2” value ([5]; Example 1 material, Start) was 0.06% and the “Impurity 3” value ([5]; Example 1 material, Start) was ≤0.05%. The “Impurity 4” value ([5]; Example 1 material, Start) was 0.26%, the “Impurity 5” value ([5]; Example 1 material, Start) was 0.26% and the Total impurities ([5]; Example 1 material, Start) was 0.66%. The “stability under stress conditions (summary)” value ([5]; Example 1 material, 60°C/80% relative humidity, 3 days) was “stable”, the “chemical stability: impurity profiles of initial samples vs stressed samples” value [5, 18] was “no significant increase of chemical impurities” and the “physical stability … vs stressed samples” value [5, 18] was “No differences in reflection positions”. For the same compound, the “physical and chemical stability under stress conditions (summary)” value ([5]; Example 3 material, 60°C/80% relative humidity, 3 days) was “physically and chemically stable”, the “increase in total impurities” value [5, 19] was “below 0.5%” and the “physical stability … vs stressed samples” value [5, 19] was “No differences in reflection positions”. For the same compound, the water uptake ([6]; material obtained from ACN/H2O (Example 3)) was “about 3.1 % (w/w)”, the water uptake ([6]; material obtained from IPA/H2O (Example 1)) was “about 3.6 % (w/w)” and the “Impurity 1” value ([7]; 1 month) was 0.07%. The “Impurity 2” value ([7]; 1 month) was ≤0.05%, the “Impurity 3” value ([7]; 1 month) was 0.06% and the “Impurity 4” value ([7]; 1 month) was 0.23%. For the same compound, the “Impurity 5” value ([7]; 1 month) was 0.25%, the Total impurities ([7]; 1 month) was 0.61% and the “Impurity 1” value ([7]; 2 months) was 0.07%. For the same compound, the “Impurity 2” value ([7]; 2 months) was ≤0.05%, the “Impurity 3” value ([7]; 2 months) was 0.06% and the “Impurity 4” value ([7]; 2 months) was 0.23%. The “Impurity 5” value ([7]; 2 months) was 0.25%, the Total impurities ([7]; 2 months) was 0.61% and the “Impurity 1” value ([7]; 3 months) was 0.07%. For the same compound, the “Impurity 2” value ([7]; 3 months) was ≤0.05%, the “Impurity 3” value ([7]; 3 months) was ≤0.05% and the “Impurity 4” value ([7]; 3 months) was 0.23%. For the same compound, the “Impurity 5” value ([7]; 3 months) was 0.25%, the Total impurities ([7]; 3 months) was 0.60% and the “Impurity 1” value ([7]; 6 months) was 0.07%. The “Impurity 2” value ([7]; 6 months) was ≤0.05%, the “Impurity 3” value ([7]; 6 months) was 0.06% and the “Impurity 4” value ([7]; 6 months) was 0.23%. For the same compound, the “Impurity 5” value ([7]; 6 months) was 0.27%, the Total impurities ([7]; 6 months) was 0.63% and the “Impurity 1” value ([7]; Start) was 0.08%. The “Impurity 2” value ([7]; Start) was 0.06%, the “Impurity 3” value ([7]; Start) was ≤0.05% and the “Impurity 4” value ([7]; Start) was 0.26%. The “Impurity 5” value ([7]; Start) was 0.26%, the Total impurities ([7]; Start) was 0.66% and the “stability under stress conditions (summary)” value ([7]; 25°C/60% relative humidity, 6 months) was “stable”. For the same compound, the “chemical stability: impurity profile of initial samples vs stressed samples” value [7, 20] was “no significant increase of chemical impurities”, the “physical stability: XRPD of initial sample vs stressed sample” value [7, 20] was “No differences in reflection positions” and the “bioaccessibility profile, crystalline form versus amorphous Compound A” value ([8]; tablets) was “comparable bioaccessibility profiles”. The “effect of PSD and amorphous content on bioaccessibility and concentration profiles” value ([8]; tablets from batches of Table 15 (amorphous content 6-75%, D50 3.6-25.0 μm)) was “did not have a significant effect”.

Source: patent US20240217985A1, “CRYSTALLINE FORM OF AN MDM2-p53 INHIBITOR AND PHARMACEUTICAL COMPOSITIONS” (Boehringer Ingelheim International GmbH, priority 2022, published 2024)
